These results are taken from the SangsterLogP compilation.

Structures are written as SMILES.

One series in a line: method code SF-AS, from DOI: 10.1016/0223-5234(92)90084-e.
Conditions: not given
As a reminder, the logP is the decadic logarithm of the partition coefficient of the neutral form, usually between octanol and water. Lower therefore signals a more hydrophilic compound. With `Cc1nc(-c2ccc(C(C)C(=O)O)cc2F)sc1C` (centres undefined), the logP was determined as 3.74.
As to `Cc1nc(-c2ccc(C(C)C(=O)O)cc2)sc1C` (centres undefined), the logP was found to be 3.36.
For the molecule `CC(C(=O)O)c1ccc(-c2nc3c(s2)CCCC3)cc1` (centres undefined), the logP is 4.41.
`CC(C(=O)O)c1ccc(-c2nccs2)c([N+](=O)[O-])c1` (centres undefined) registered a logP of 2.06.
`Cc1csc(-c2ccc(C(C)C(=O)O)cc2F)n1` (centres undefined) returned a logP of 3.52.
As to `Cc1csc(-c2ccc(C(C)C(=O)O)cc2)n1` (centres undefined), the log partition coefficient (logP) was found to be 3.03.
In turn, `CC(C(=O)O)c1ccc(-c2nccs2)c(F)c1` (centres undefined) gave a logP of 3.14.
Still for that read-out and setting: in the case of `CCc1nc(-c2ccc(C(C)C(=O)O)cc2)sc1C` (centres undefined) it was 3.99.
Still for that read-out and setting: the result for `Cc1csc(-c2ccc(C(C)C(=O)O)cc2Cl)n1` (centres undefined) reads 3.65; that for `CCc1cnc(-c2ccc(C(C)C(=O)O)cc2F)s1` (centres undefined), 4.1.
The molecule `CC(C(=O)O)c1ccc(-c2nc(CO)cs2)cc1` (centres undefined) displayed a log partition coefficient (logP) of 2.25.
In the case of `Cc1nc(-c2ccc(C(C)C(=O)O)cc2Cl)sc1C` (centres undefined), the logP came to 3.94.
Same read-out and setting: in the case of `Cc1cnc(-c2ccc(C(C)C(=O)O)cc2Cl)s1` (centres undefined) it was 3.66; in that of `Cc1cnc(-c2ccc(C(C)C(=O)O)cc2F)s1` (centres undefined), 3.55.
In turn, `COCc1csc(-c2ccc(C(C)C(=O)O)cc2)n1` (centres undefined) had a logP of 2.78.
In turn, `CCCCc1csc(-c2ccc(C(C)C(=O)O)cc2F)n1` (centres undefined) registered a logP of 4.66.
As for `CC(C(=O)O)c1ccc(-c2nccs2)c(Cl)c1` (centres undefined), the log partition coefficient (logP) is 3.39.
`CCc1cnc(-c2ccc(C(C)C(=O)O)cc2Cl)s1` (centres undefined) came in with a logP of 4.39.
Take `CCCCc1csc(-c2ccc(C(C)C(=O)O)cc2Cl)n1` (centres undefined): the logP came to 4.84.
`CCCCc1csc(-c2ccc(C(C)C(=O)O)cc2)n1` (centres undefined) gave a logP of 4.04.
On the same count and under the same terms, the result for `COc1cc(C(C)C(=O)O)ccc1-c1nccs1` (centres undefined) reads 2.47.
`CCc1csc(-c2ccc(C(C)C(=O)O)cc2)n1` (centres undefined): the logP stood at 3.75.

Staying with this series, now noted: pH 2.0.
A word on the logD: it is the decadic logarithm of the distribution of all forms, ionised or not, between an organic phase and buffer at a given pH. A low value points to a more hydrophilic compound. With `CNC(=O)c1csc(-c2ccc(C(C)C(=O)O)cc2)n1` (centres undefined), the logD was 2.45.
Molecule `CC(C(=O)O)c1ccc(-c2nc(C(F)(F)F)cs2)cc1` (centres undefined) yielded a logD of 3.78.
On to `CC(=O)c1csc(-c2ccc(C(C)C(=O)O)cc2)n1` (centres undefined), for which the log distribution coefficient (logD) was 2.65.
`CC(C(=O)O)c1ccc(-c2nc(C(N)=O)cs2)cc1` (centres undefined) came in with a logD of 2.17.
`CC(C)c1csc(-c2ccc(C(C)C(=O)O)cc2Cl)n1` (centres undefined) yielded a logD of 4.26.
For `CCc1csc(-c2ccc(C(C)C(=O)O)cc2F)n1` (centres undefined), the logD is 3.58.
For `CC(C)c1csc(-c2ccc(C(C)C(=O)O)cc2F)n1` (centres undefined), the logD was found to be 4.04.
On the same count and under the same terms, in the case of `CC(C(=O)O)c1ccc(-c2nc(-c3ccccc3)cs2)cc1` (centres undefined) it was 4.81.
Regarding `C=CCc1csc(-c2ccc(C(C)C(=O)O)cc2)n1` (centres undefined), the logD was 3.4.
On to `C=Cc1csc(-c2ccc(C(C)C(=O)O)cc2)n1` (centres undefined), for which the log distribution coefficient (logD) is 3.54.
As for `CC(C(=O)O)c1ccc(-c2nc(C(=O)N(C)C)cs2)cc1` (centres undefined), the logD worked out at 2.15.

The same series, now with this note: pH 3.4.
Consider `CC(C(=O)O)c1ccc(-c2nccs2)c(N)c1` (centres undefined), for which the logD is 2.45.
